From article PMC12207533, “Structure-guided design of a methyltransferase-like 3 (METTL3) proteolysis targeting chimera (PROTAC) incorporating an indole–nicotinamide chemotype” (RSC Medicinal Chemistry, 2025)
Where “and” joins values, the source holds several entries; their conditions need not be identical. Identical values can stand only once. Like-named read-outs stand apart in the source and are kept apart here.

Legend:
METTL3/14 = target: T1, METTL3/14 (Homo sapiens, UniProt Q86U44); test: Fluorescence polarization (FP) displacement assay with METTL3/14; assay type: binding
T1 construct: human METTL3 (UniProt: Q86U44, aa 252–580); Strep-tag II (C); made in house; host or cells: E. coli BL21 (DE3)
T1 sequence (Q86U44 252-580): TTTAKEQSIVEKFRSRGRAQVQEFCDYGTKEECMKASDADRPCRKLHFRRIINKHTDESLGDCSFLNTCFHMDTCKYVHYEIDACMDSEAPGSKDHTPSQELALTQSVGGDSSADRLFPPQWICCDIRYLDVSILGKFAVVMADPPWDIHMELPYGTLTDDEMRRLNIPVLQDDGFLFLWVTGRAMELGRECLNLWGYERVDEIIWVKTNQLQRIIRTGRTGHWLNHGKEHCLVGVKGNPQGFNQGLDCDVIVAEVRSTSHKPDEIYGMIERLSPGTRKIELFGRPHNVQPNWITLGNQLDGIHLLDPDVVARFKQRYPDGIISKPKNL
T1 sequence (Q9HCE5 108-444 partner limits assumed): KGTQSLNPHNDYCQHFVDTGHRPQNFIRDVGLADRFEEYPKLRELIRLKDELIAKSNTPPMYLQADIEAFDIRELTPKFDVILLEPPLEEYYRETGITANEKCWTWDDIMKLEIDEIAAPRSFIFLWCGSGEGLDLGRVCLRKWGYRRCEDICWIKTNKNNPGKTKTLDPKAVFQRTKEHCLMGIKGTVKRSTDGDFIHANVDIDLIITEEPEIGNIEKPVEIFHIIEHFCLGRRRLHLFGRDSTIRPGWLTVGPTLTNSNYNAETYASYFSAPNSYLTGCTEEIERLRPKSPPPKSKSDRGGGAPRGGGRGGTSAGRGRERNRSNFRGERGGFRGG
Procedure: (§1) Fluorescence polarization (FP) displacement assays with METTL3/14 (ref. [36]) and VCB[38–40] were performed following previous protocols with slight adaptations. All experiments were conducted in black Greiner 96-well half-area plates using a Tecan Spark 10 M plate reader, equipped with polarization filters coupled to a monochromator setup (λex = 480 nm, λem = 530 nm). Reaction mixtures for METTL3/14 contained 300 nM recombinant enzyme, 20 nM FAM-labelled displacement tracer (STM-FL[36]), and the test compounds at varying concentrations in 25 mM Tris HCl, pH 7.5, 100 mM NaCl, and 10% DMSO. For VCB, the mixtures contained 40 nM recombinant enzyme, 10 nM FAM-labelled probe (FAM-DEALAHyp[…], Tocris Bioscience), and the tested compounds, at varying concentrations, in 50 mM Tris, pH 7.5, 200 mM NaCl, 2 mM DTT, and 10% DMSO. […] All measurements were performed at least as technical triplicates. Polarization values (mP) were determined from polarization-specific parallel and orthogonal fluorescence intensities using the Tecan in-built calculation routine. Using GraphPad Prism 8.0.1, the FP values were normalized, and KD values were calculated using a 4-parameter Hill equation: y(% probe bound) = bottom + ([ligand]slope) × (top–bottom)/([ligand]slope + KD slope).

METTL14 = test: Immunoblotting of METTL14 protein levels in MOLM-13 cells; assay type: cell-based, human
Procedure: (§2) MOLM-13 were seeded in 12-well cell culture plates at a density of 1 × 10^6 cells per mL and treated with DMSO (final: 0.1%) or different concentrations of PROTAC degraders in DMSO at the indicated times. Treatments were conducted in biological triplicate with varying passages of MOLM-13 cells. The cells were harvested by centrifugation at 500g for 5 min and washed with PBS. The cells were lysed with RIPA lysis buffer with the addition of protease inhibitor (1× cOMPLETE), and insoluble cellular parts were separated by centrifugation (12 000g for 10 min), subsequently, the supernatant was boiled with 1× Laemmli sample buffer (Carl Roth) for 5 min at 95 °C. Proteins were separated by SDS–PAGE on 4–20% Criterion™ TGX™ Precast Protein Gels (Bio-Rad) and transferred to Amersham™ Protean® 0.45 μm nitrocellulose membrane (Cytiva) using semi-dry transfer (25 V, 1 A, Towbin buffer). […] The protein bands were detected via chemiluminescence using Pierce™ ECL western blotting substrate and a Fusion FX imaging system (Vilber). The ImageLab software (Bio-Rad) was used for band quantification.

METTL3 mRNA = test: RT-qPCR of METTL3 mRNA expression; assay type: cell-based, human; conditions: MOLM-13, AF151 2 μM or STM2457 10 μM, 24 h and 48 h
Procedure: (§3) To determine mRNA expression levels of METTL3 and METTL14, MOLM-13 cells were treated in triplicate with compound 41 (AF151, 2 μM), STM2457 (10 μM), and DMSO for 24 resp. 48 h. Afterward, total RNA was extracted using the TRIzol™ reagent (Thermo Fisher Scientific) and purified with the Monarch® Spin RNA Cleanup Kit (New England Biolabs). RT-qPCR was conducted using the two-step GoTaq® RT-qPCR system (Promega) following the manufacturer's protocol. The data were normalized to the DMSO control and GAPDH housekeeping gene (ΔΔCt) using GraphPad Prism 8.0.1.

[1] = target: T2, VCB (VHL, elongin B, elongin C) (Homo sapiens, UniProt P40337); test: FP displacement assay with VCB (binary and ternary KD, cooperativity); assay type: binding
T2 construct: VHL (UniProt: P40337, aa 1–213); His6 (N); made in house; host or cells: E. coli BL21 (DE3)
T2 sequence (P40337 whole entry, the tested form may be a part): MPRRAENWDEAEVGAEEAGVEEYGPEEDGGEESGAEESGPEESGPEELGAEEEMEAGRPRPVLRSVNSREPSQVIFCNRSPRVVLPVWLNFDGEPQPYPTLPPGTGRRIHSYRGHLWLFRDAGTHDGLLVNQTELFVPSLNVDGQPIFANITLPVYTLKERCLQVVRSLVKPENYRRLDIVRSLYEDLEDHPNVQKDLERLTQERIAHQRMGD
T2 sequence (Q15370 whole entry partner, the tested form may be a part): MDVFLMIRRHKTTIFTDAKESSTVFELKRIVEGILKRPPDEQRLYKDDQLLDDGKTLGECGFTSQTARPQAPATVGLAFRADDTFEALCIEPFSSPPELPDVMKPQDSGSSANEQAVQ
T2 sequence (Q15369 17-112 partner limits assumed): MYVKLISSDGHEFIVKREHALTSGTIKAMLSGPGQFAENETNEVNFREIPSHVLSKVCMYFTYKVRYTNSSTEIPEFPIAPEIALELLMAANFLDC
Procedure: as §1

MOLM-13 cells [2] = test: Cell viability assay (CellTiter Glo 2.0); assay type: cell-based, human; conditions: MOLM-13, 72 h, read-out: IC50 (cell viability inhibition)
Procedure: (§4) To determine cell viability, MOLM-13 cells were treated with the indicated compounds in a 1 : 1 serial dilution, with pure DMSO (final: 0.1%) as the negative control. Briefly, 1000 cells were seeded in black Greiner half-area 96-well plates and incubated for 72 h with inhibitors from DMSO stocks under standard cultivation conditions. Then, Promega CellTiter Glo 2.0 reagent was added to each well according to the manufacturer's protocols, and luminescence was measured using a Tecan Spark 10 M. Experiments were conducted in technical triplicate. Data was normalized to the DMSO control and analyzed with GraphPad Prism 8.0.1 to determine EC50 values. Synergistic effects of venetoclax and AF151 on cell MOLM-13 viability were conducted accordingly, with dilution series of both compounds analyzed using the SynergyFinder+ webtoolkit.[57]

[3] = system: m^6A levels in MOLM-13 mRNA; test: RNA m^6A quantification (colorimetric kit); assay type: cell-based, human; conditions: MOLM-13, AF151 2 μM vs STM2457 10 μM, 24 and 48 h
Procedure: Quantification of m^6A levels upon compound treatment was conducted in analogy to the study introducing the WD6305 PROTAC.[31] MOLM-13 cells were treated with AF151 (2 μM), STM2457 (10 μM), and DMSO in triplicate for 24 and 48 h. Total RNA was isolated as specified above. PolyA mRNA was then isolated using the PolyATtract® mRNA Isolation System (Promega). m^6A levels were quantified using a colorimetric m^6A RNA methylation Assay Kit (Abcam) as specified in the manufacturer's protocol.

METTL3 [4] = target: T3, METTL3 (Homo sapiens, UniProt Q86U44); test: Immunoblotting of METTL3 protein levels in MOLM-13 cells; assay type: cell-based
T3 construct: endogenous in cells; host or cells: MOLM-13
T3 sequence (Q86U44 whole entry): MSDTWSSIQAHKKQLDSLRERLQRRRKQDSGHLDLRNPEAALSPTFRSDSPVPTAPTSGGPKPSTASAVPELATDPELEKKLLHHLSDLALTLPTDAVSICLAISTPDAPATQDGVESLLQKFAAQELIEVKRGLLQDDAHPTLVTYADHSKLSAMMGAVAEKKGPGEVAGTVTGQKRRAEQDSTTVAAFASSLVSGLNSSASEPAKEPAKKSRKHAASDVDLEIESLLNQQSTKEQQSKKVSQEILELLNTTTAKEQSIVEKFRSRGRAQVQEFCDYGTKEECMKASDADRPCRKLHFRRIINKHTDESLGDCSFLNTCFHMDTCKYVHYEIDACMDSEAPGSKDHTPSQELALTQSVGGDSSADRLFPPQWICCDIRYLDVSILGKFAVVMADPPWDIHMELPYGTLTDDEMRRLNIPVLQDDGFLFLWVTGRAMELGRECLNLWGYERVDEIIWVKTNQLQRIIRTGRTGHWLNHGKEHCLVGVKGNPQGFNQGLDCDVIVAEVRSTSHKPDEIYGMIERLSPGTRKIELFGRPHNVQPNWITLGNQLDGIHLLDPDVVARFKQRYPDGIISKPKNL
Procedure: MOLM-13 were seeded in 12-well cell culture plates at a density of 1 × 10^6 cells per mL and treated with DMSO (final: 0.1%) or different concentrations of PROTAC degraders in DMSO at the indicated times. Treatments were conducted in biological triplicate with varying passages of MOLM-13 cells. The cells were harvested by centrifugation at 500g for 5 min and washed with PBS. The cells were lysed with RIPA lysis buffer with the addition of protease inhibitor (1× cOMPLETE), and insoluble cellular parts were separated by centrifugation (12 000g for 10 min), subsequently, the supernatant was boiled with 1× Laemmli sample buffer (Carl Roth) for 5 min at 95 °C. Proteins were separated by SDS–PAGE on 4–20% Criterion™ TGX™ Precast Protein Gels (Bio-Rad) and transferred to Amersham™ Protean® 0.45 μm nitrocellulose membrane (Cytiva) using semi-dry transfer (25 V, 1 A, Towbin buffer). The membrane was blocked with 5% milk (Carl Roth) in TBST buffer and incubated with the following primary antibodies: Anti-METTL3 (1 : 1000, Abcam, ab195352), anti-METTL14 (1 : 1000, Abcam, ab220030), anti-Bcl2 (1 : 1000, Cell Signaling Technology [CST], EPR16891), anti-Mcl-1 (1 : 1000, CST, 5453 T), anti-Bcl-XL (1 : 1000, CST, 2764 T), anti-vinculin (1 : 1000, CST, 13901) or anti-GAPDH (1 : 5000, CST, D17C4) overnight at 4 °C. Subsequently, the membrane was incubated for 1 h at RT with secondary antibodies: anti-rabbit (1 : 2000, VWR, NA934) or anti-mouse (1 : 2000, VWR, 102646-160). The protein bands were detected via chemiluminescence using Pierce™ ECL western blotting substrate and a Fusion FX imaging system (Vilber). The ImageLab software (Bio-Rad) was used for band quantification.

human VHL = target: T4, human VHL (Homo sapiens, UniProt P40337); test: HTRF human VHL binding kit
T4 construct: purchased Revvity
T4 sequence (P40337 whole entry): as the sequence (P40337 whole entry, the tested form may be a part) above
T4 sequence (Q15370 whole entry partner): as the sequence (Q15370 whole entry partner, the tested form may be a part) above
T4 sequence (Q15369 whole entry partner): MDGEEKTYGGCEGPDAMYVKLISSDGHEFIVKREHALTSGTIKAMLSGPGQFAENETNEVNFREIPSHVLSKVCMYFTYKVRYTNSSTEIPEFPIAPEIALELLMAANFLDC
Procedure: PROTACs binding to VHL or CRBN were measured using a homogeneous time-resolved fluorescence (HTRF) human VHL or CRBN binding kit (Revvity). Samples were prepared according to the manufacturer's protocol, with compounds diluted in the provided diluent while maintaining a constant DMSO concentration with a final concentration of 1.25%. For the ternary KD determinations, METTL3/14 was added at 4 μM, corresponding to approximately a 20- to 40-fold excess of binary KD, while all other component concentrations were kept as specified in the protocol. Measurements were performed in triplicate using a Tecan Spark 10 M plate reader, recording donor and acceptor emissions at λem_donor = 620 nm and λem_acceptor = 665 nm, respectively, following excitation of the HTRF donor at λex = 320 nm. The acceptor-to-donor emission ratio was calculated as ratio = signal 665 nm/signal 620 nm. Using GraphPad Prism 8.0.1, the fluorescence values were normalized, and KD values were calculated as specified above.

MOLM-13 cells [5] = test: Synergy analysis (ZIP, SynergyFinder+) of AF151 and venetoclax on cell viability; assay type: cell-based, human; conditions: co-treatment with venetoclax, 72 h
Procedure: as §4

MOLM-13 cells [6] = test: Real-time annexin V apoptosis assay; assay type: cell-based, human; conditions: MOLM-13, dose-dependent, monitored over 48 h
Procedure: MOLM-13 cells were treated with AF151 at the indicated concentrations for 48 h, with DMSO (final: 0.1%) as the negative control. Apoptosis of technical triplicate samples was detected in real-time using the RealTime-Glo™ annexin V apoptosis assay kit (Promega), following the manufacturer's protocol. Data were plotted using GraphPad Prism 8.0.1.

Mcl-1 = test: Immunoblotting of Mcl-1 protein levels in MOLM-13 cells; assay type: cell-based, human; conditions: 2 μM, time course
Procedure: as §2

METTL14 mRNA = test: RT-qPCR of METTL14 mRNA expression; assay type: cell-based, human; conditions: MOLM-13, AF151 2 μM or STM2457 10 μM, 24 h and 48 h
Procedure: as §3

Bcl-XL = test: Immunoblotting of Bcl-XL protein levels in MOLM-13 cells; assay type: cell-based, human; conditions: 2 μM, time course
Procedure: as §2

Bcl-2 = test: Immunoblotting of Bcl-2 protein levels in MOLM-13 cells; assay type: cell-based, human; conditions: 2 μM, time course
Procedure: as §2

METTL3 [7] = target: METTL3; parameters: method as in PMID 33902106; conditions: cited from earlier work

## Cc1ncsc1-c1ccc(CNC(=O)[C@@H]2C[C@@H](O)CN2C(=O)[C@@H](NC(=O)CCc2ccc(-c3ccc(COc4cncc(C(=O)NCc5ccc6cc(CN7CCC(C)(C)CC7)[nH]c6c5)c4)cc3)cc2)C(C)(C)C)cc1 [compound 41]
METTL3/14
  Kd: 159 ± 26 nM
METTL14; 2 μM, after 1 h, MOLM-13
  METTL14 protein level relative to DMSO (transient increase): ~150%
METTL14; MOLM-13, 1 μM, 16 h
  METTL14 degradation (Western blot): significant degradation
METTL3 mRNA
  METTL3 mRNA level (ΔΔCt): no significant changes
[1]; absence of METTL3, read-out: KD binary (VHL)
  Kd: 363 nM
[1]; presence of METTL3/14 (12 μM), read-out: KD ternary (VHL)
  Kd: 79.9 nM and 77 nM
MOLM-13 cells [2]; Homo sapiens
  IC50: 450 nM
[3]
  global m^6A level reduction in mRNA: more pronounced m^6A reduction
METTL3 [4]; 2 μM, time course, MOLM-13
  time for which maximal METTL3 degradation is maintained: at least 48 h
  time of maximal METTL3 degradation effect: 24 h
METTL3 [4]; 2 μM, within the first 6 h of treatment, MOLM-13
  METTL3 reduction: over 50%
METTL3 [4]; MOLM-13, 1 μM, 16 h
  METTL3 degradation (Western blot): significant degradation
METTL3 [4]; MOLM-13, 16 h
  concentration of hook effect (METTL3 degradation decreased): > 5 µM
METTL3 [4]; MOLM-13, 16 h treatment, read-out: DC50 (METTL3 degradation)
  DC50: 430 nM
METTL3 [4]; MOLM-13, MLN4924 1 μM
  METTL3 degradation on co-treatment with MLN4924: suppressed METTL3 degradation
METTL3 [4]; MOLM-13, MOLM-13, 16 h, maximal degradation occurred at 2.5 μM
  Dmax at 2.5 µM: 95%
METTL3 [4]; MOLM-13, STM2457 20 μM
  METTL3 degradation on co-treatment with STM2457: inhibited degradation
METTL3 [4]; MOLM-13, VH032 10 μM
  METTL3 degradation on co-treatment with VH032: suppressed METTL3 degradation
METTL3 [4]; MOLM-13, bortezomib 1 μM
  METTL3 degradation on co-treatment with bortezomib: suppressed METTL3 degradation
Human VHL; HTRF Human VHL Binding Kit, binary, read-out: KD E3-ligases (VHL, HTRF)
  Kd: 740 ± 113 nM
Human VHL; VHL affinity in presence and absence of METTL3/14 (4 μM)
  cooperativity (HTRF): positive cooperativity
MOLM-13 cells [5]
  maximum ZIP synergy score: 28.87
  mean ZIP synergy score: 3.38
MOLM-13 cells [6]
  time to apoptosis induction: approximately 10 h
Mcl-1
  effect on Mcl-1 protein level: time-dependent reduction
METTL14 mRNA
  METTL14 mRNA level (ΔΔCt): no significant changes
Bcl-XL
  effect on Bcl-XL protein level: but not Bcl-XL
Bcl-2
  effect on Bcl-2 protein level: time-dependent reduction
  t1/2 of Bcl-2 protein level decrease: 18 h

## STM2457 [reference compound]
METTL3 mRNA
  METTL3 mRNA level (ΔΔCt): no significant changes
MOLM-13 cells [2]
  IC50: 1820 nM
METTL3 [4]; MOLM-13, 0.1-10 μM, 16 h
  METTL3 degradation (Western blot screening): do not func?on as METTL3 degraders
METTL3 [7]
  Kd: 1.4 nM
METTL14 mRNA
  METTL14 mRNA level (ΔΔCt): no significant changes
